Like-named read-outs stand apart in the source and are kept apart here.
Experiments:
Plasmaproteine = settings: cited from earlier work
BSA [1] = biological target: T1, BSA (Bos taurus, UniProt P02769); assay: Adsorption of ET on activated carbon after prior release by uncoupler, BSA, batch; design: species or system Rind; settings: for adsorbierte Menge nach 45 Minuten: uncoupler pre-adsorbed on SCII, then 30 mg AK
Method: In dieser Versuchsreihe wurde das Zusammenwirken aller bisher betrachteten Parameter im Batch erprobt. 1 ml ET-Lösung (2170/umol ET/1 PBS) wurden für ca. 18 Stunden bei 37°C mit 40 mg BSA inkubiert. Nach dieser Zeit beträgt die ET-Konzentration lediglich 5% des Ausgangswerts (d.h. 95% des ET sind an das BSA gebunden). Nun erfolgte die Zugabe von 150/ul Entkoppler (K-Cystein = 115, Fig. 7, Kurve a; K-Glutathion = 30, Fig. 8, Kurve a). Die Abkopplung des ET wird verfolgt, bis keine Zunahme der ET-Konzentration mehr eintritt. Bei der Verwendung von Cystein erfolgt die Freisetzung schneller als bei Glutathion.
Nun wurden 30 mg SCII (vorher in PBS entgast) zu den Proben hinzugegeben. Die ET-Konzentration nimmt nun rasch ab. Die gesamte Restmenge beträgt nach 45 Minuten nur noch ca. 5% des Anfangswerts. Es wurden also 95% der vorgegebenen Thiolmenge von 30 mg AK entfernt.
In einer weiteren Versuchsreihe wurde untersucht, ob der Entkoppler auch wirksam ist, wenn er zuvor an Aktivkohle adsorbiert wurde. Dazu wurden 30 mg SCII mit den Entkoppler-Lösungen 2 Stunden inkubiert. Diese vorbeladene Kohle wurde dann statt der Entkoppler-Lösung eingesetzt. Fig. 7 und 8 (jeweils Kurve b) zeigen den Abkopplungsvorgang. Die freie ET-Konzentration steigt in beiden Fällen nicht auf den Anfangswert an. Dem Freisetzungsprozeß ist eine Adsorption überlagert. Sie liegt bei AK-Glutathion um ca. 50% tiefer als bei AK-Cystein. Nach Zugabe von 30 mg AK (in PBS entgast) fällt die ET-Konzentration schnell ab. Nach 45 Minuten beträgt die adsorbierte Menge bei Verwendung von Cystein ca. 97%, bei Verwendung von Glutathion ca. 95%.

Plasma = assay: Removal of protein-bound ET from plasma; settings: for Restkonzentration an ET nach Adsorption an AK mit vorheriger Freisetzung durch Entkoppler: 30 mg AK, 45 min, relative to initial value
[2] = biological target: T2, Ethanthiol-Protein-Komplex (BSA) (Bos taurus, UniProt P02769); assay: Variation of the uncoupler amount, release of ET from BSA; design: species or system Rind; settings: compared with reduced Glutathion
T2 construct: Rinderserumalbumin (BSA, bovine serum albumin); purchased Behring, Marburg
Method: Um die Wirksamkeit der beiden Entkoppler vergleichen zu können, wurden Proben mit 40 mg BSA auf 1 ml ET-Lösung (2170/umol ET/1 PBS) über Nacht bei 37 °C inkubiert. Nach dieser Zeit betrug die freie Thiolkonzentration ca. 2 bis 5% der Ausgangskonzentration. Nach der Zugabe unterschiedlicher Entkoppler-Mengen wurde die Freisetzung des ET gaschromatographisch verfolgt. Fig. 3 und 4 zeigen den Verlauf der ET-Konzentration als Funktion der Zeit. Die Zugabe des Entkopplers erfolgte zum Zeitpunkt t = o. Der Parameter K entspricht dem molaren Verhältnis zwischen eingesetzter Entkoppler-Menge und eingesetzter ET-Thiolmenge.

BSA [3] = biological target: T1, BSA; assay: Adsorption of protein-bound ET on activated carbon without prior release, BSA; design: species or system Rind; settings: K = 110, added after removal of carbon; BSA and HSA samples
Method: (§1) Um die Leistungsfähigkeit der ET-Entfernung nach vorhergehender Abkopplung von Protein beurteilen zu können, wurde die Adsorptionskinetik ohneverwendung eines Entkopplers untersucht. Dazu wurden im Batchversuch Proben, die 40 mg BSA oder HSA auf 1 ml ET-Lösung (2170/umol ET/ 1 PBS) enthielten, über Nacht auf einem Rollermixer inkubiert. Nach Einstellen des Gleichgewichts wurde am nächsten Tag die Konzentration an ET bestimmt. Sie lag für BSA bei ca. 11% und für HSA bei ca. 21% der Ausgangskonzentration. Zu beiden Proben wurden 30 mg SCII (vorher in PBS entgast) zugegeben und die freie ET-Konzentration fortlaufend gemessen. Nach 45 Minuten wurden die AK entfernt und Cystein zugegeben. […] Fig. 6 zeigt den Verlauf der ET-Konzentration. Die Probe, die HSA enthielt, wies eine Abnahme der ET-Menge durch Adsorption von 78% auf, die Probe mit BSA lediglich von ca. 68%. Dieses Ergebnis deckt sich mit der Beobachtung,daß ET stärker an BSA gebunden ist als an HSA. Damit konnte gezeigt werden, daß proteingebundenes ET durch Aktivkohle entfernt werden kann. Die Restkonzentration liegt jedoch relativ hoch, und die Kinetik ist langsam.

BSA [4] = biological target: T1, BSA; assay: Binding of Ethanthiol to BSA, gas chromatography (headspace)
HSA [5] = biological target: T3, HSA (Homo sapiens, UniProt P02768); assay: Binding of Ethanthiol to HSA, gas chromatography (headspace); assay type: in vitro ADME; settings: 40 mg HSA per 1 ml ET solution, overnight, equilibrium
T3 construct: Humanserumalbumin (HSA); purchased Behring, Marburg or Sigma, St. Louis (fatty-acid-free)
Method: as §1

Fibrinogen = biological target: T4, Fibrinogen (Bos taurus, UniProt P02672+P02676+P12799)
T4 sequence (P02672 20-615): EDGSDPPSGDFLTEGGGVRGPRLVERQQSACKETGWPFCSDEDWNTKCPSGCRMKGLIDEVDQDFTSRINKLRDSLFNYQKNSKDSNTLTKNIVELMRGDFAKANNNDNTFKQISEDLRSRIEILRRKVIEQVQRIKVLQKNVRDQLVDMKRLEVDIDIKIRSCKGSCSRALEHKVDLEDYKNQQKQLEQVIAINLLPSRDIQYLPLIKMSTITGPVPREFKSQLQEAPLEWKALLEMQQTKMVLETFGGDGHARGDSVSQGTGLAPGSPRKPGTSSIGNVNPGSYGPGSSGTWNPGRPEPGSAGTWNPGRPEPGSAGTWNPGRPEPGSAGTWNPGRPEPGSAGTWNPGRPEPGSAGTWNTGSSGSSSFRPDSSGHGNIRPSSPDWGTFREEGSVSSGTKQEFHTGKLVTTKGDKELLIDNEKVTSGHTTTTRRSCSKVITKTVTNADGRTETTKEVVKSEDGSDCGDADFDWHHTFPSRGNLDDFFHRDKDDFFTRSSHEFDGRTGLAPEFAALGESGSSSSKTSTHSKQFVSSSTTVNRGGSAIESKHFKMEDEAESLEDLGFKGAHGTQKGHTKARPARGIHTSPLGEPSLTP
T4 sequence (P02676 1-468): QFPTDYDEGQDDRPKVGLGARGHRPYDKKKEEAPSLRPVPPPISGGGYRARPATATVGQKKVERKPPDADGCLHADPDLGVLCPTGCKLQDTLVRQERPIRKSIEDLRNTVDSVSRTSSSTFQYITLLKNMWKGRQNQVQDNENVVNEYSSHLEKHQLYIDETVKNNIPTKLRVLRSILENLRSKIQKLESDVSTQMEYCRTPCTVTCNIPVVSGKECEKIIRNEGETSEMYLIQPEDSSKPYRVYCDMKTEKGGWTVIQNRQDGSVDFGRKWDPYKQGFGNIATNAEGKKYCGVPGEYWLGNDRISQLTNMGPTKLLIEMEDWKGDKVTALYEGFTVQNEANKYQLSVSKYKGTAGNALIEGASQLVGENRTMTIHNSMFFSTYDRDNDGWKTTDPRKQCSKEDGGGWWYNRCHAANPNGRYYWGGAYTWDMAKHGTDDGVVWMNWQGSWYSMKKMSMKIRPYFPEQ
T4 sequence (P12799 25-444): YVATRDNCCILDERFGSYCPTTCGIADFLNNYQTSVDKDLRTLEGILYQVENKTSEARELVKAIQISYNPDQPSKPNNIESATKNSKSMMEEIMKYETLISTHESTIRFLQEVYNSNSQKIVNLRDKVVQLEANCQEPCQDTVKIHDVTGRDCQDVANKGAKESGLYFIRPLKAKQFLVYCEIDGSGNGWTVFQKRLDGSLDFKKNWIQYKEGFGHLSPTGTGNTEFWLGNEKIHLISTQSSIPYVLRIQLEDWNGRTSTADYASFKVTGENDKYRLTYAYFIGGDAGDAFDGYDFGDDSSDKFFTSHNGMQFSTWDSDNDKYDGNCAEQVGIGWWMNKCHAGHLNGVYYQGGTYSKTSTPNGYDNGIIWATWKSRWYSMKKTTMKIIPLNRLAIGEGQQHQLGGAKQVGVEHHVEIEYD

[6] = Removal of protein-bound ET from plasma
BSA [7] = biological target: T1, BSA; assay: in vitro; settings: bovine
[8] = tested on: Methotrexat, Proteinbindung; assay: Uncoupling of toxin from protein binding, molar ratio K (Table III), toxin Methotrexat; settings: molar ratio of uncoupler to toxin
Text: Werte können Tabelle III entnommen werden.

[9] = tested on: Ethanthiol, Proteinbindung; settings: molar ratio of uncoupler to toxin; toxin Ethanthiol (Methanthiol)
BSA [10] = biological target: T1, BSA; assay: Binding study of toxins to protein, ultrafiltration and photometry, BSA; settings: bovine, bsa in pbs
HSA [11] = biological target: T3, HSA; assay: Binding study of toxins to protein, ultrafiltration and photometry, HSA; assay type: in vitro ADME; settings: HSA 80 mg in 2 ml PBS, depends on initial concentration, read-out: MTX in ungebundener Form
Method: Es wurden beide Verfahren der Druckerzeugung (Druckluft, Zentrifugation) erprobt. Dazu wurden die Proben (2 ml) in die Trennzelle gefüllt und ein Teil (150fu1) abgetrennt. Durch diesen kleinen Probenverlust wird das Gleichgewicht der Probe nur schwach gestört. Die Konzentrationen der einzelnen Substanzen (Toxin und Protein) wurden photometrisch mit einem Mehrkomponentenanalyseprogramm ermittelt. Beide Meßverfahren führten zu den gleichen Ergebnissen. Bevorzugt ist das Verfahren der Ultrafiltration mit Hilfe der Zentrifugation. Dieses Verfahren erlaubt einen höheren Probendurchsatz als das Verfahren mit Druckluft. Die verwendeten Proteinkonzentrationen waren physiologisch (Albumin 40 g/l; Fibrinogen 4 g/l). Aus den bekannten Anfangskonzentrationen und der gemessenen Konzentration an freiem ungebundenen Toxin lassen sich die Bindungsparameter sowie die Adsorptionsisothermen punktweise ermitteln.
Das freie ungebundene Toxin wurde durch Ultrafiltration gewonnen und die Konzentration photometrisch mit Hilfe der Mehrkomponentenanalyse bestimmt. Die Ausgangsproben enthielten 80 mg Protein und wurden mit PBS auf 2 ml aufgefüllt (physiologische Konzentration). Die Toxinmenge wurde zwischen 100 und 1GOO/ug variiert. Es zeigten sich deutliche Unterschiede zwischen BSA und HSA.

BSA [12] = biological target: T1, BSA; assay: Competitive adsorption of fatty acids and Ethanthiol on BSA; design: species or system Rind; settings: rising oleic acid concentration
Text: Aus der Literatur ist bekannt, daß Fettsäuren eine starke Proteinbindung aufweisen. Proben, die Thiol und ölsäure (einfach ungesättigte Fettsäure) enthielten, zeigten abnehmende Thioladsorption bei steigender ölsäurekonzentration.

T1 sequence (P02769 25-607): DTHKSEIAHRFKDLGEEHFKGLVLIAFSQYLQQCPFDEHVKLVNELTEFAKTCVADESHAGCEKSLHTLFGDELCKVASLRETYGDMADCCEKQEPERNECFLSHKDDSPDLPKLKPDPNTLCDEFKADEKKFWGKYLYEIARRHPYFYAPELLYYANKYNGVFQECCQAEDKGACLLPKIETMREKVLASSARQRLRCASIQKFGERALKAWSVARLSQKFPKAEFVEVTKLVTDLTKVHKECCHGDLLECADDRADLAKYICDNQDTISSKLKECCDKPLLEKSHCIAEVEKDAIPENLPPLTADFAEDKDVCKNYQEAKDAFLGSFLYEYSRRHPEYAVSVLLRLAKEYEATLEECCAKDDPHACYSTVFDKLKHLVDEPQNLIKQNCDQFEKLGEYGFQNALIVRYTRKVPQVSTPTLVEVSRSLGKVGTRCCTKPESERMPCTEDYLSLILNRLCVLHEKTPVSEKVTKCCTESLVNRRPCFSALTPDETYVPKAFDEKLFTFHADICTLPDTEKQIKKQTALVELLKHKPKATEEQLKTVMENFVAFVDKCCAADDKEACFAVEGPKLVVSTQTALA
T3 sequence (P02768 25-609 limits assumed): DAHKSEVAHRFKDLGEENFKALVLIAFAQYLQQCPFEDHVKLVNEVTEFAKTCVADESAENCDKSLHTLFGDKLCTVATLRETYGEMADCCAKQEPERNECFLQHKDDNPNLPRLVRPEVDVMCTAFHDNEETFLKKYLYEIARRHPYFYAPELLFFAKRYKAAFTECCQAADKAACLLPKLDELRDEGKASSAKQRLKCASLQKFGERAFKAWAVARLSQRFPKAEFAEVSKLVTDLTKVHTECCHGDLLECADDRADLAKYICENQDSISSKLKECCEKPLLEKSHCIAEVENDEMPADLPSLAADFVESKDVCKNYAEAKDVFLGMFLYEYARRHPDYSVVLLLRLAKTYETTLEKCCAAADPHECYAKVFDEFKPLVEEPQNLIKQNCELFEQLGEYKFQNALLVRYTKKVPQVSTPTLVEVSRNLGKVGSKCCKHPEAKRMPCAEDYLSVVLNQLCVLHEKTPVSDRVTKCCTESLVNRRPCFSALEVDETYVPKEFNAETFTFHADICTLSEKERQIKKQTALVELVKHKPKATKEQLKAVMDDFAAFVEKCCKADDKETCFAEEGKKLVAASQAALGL
T2 sequence (P02769 25-607): as the sequence (P02769 25-607) above

## CCN(CC)CCCC(C)Nc1ccnc2cc(Cl)ccc12 (racemic) [Chloroquin]
Plasmaproteine; plasma
  Bindung von Pharmaka an Plasmaproteine: 55%

## CN(C)CCCN1c2ccccc2Sc2ccc(Cl)cc21 [Chlorpromazin]
Plasmaproteine; plasma
  Bindung von Pharmaka an Plasmaproteine: 90%

## O=c1ccc2ccccc2o1 [Coumarin]
Plasmaproteine; plasma
  Bindung von Pharmaka an Plasmaproteine: 99%

## N[C@@H](CS)C(=O)O [Cystein]
BSA [1]; K-Cystein = 115, K-Glutathion = 30
  Freisetzung, Geschwindigkeit im Vergleich zu Glutathion: schneller
BSA [1]
  adsorbierte Menge nach 45 Minuten: ca. 97%
Plasma
  Freisetzung, Geschwindigkeit im Vergleich zu Glutathion: schnellere Freisetzung
Plasma; uncoupler added directly
  Restkonzentration an ET nach Adsorption an AK mit vorheriger Freisetzung durch Entkoppler: 15%
Plasma; uncoupler pre-adsorbed on AK
  Restkonzentration an ET nach Adsorption an AK mit vorheriger Freisetzung durch Entkoppler: 4%
[2]
  K-Werte für den gleichen Freisetzungsgrad an ET: höher
BSA [3]
  Freisetzung des noch vorhandenen Ethanthiols: totale Freisetzung

## CC1=NS(=O)(=O)c2cc(Cl)ccc2N1 [Diazoxid]
Plasmaproteine; plasma
  Bindung von Pharmaka an Plasmaproteine: 90%

## CCS [Ethanthiol]
BSA [4]
  Adsorption des Ethanthiols an BSA bis zur Nachweisgrenze dauert: ≤ 6 Stunden
BSA [4]; 40 mg BSA, 1 ml ET solution 2170 µmol/l, 37°C
  Zeit, nach der 50% der ET-Menge gebunden sind: ca. 3 Stunden
HSA [5]
  Konzentration an ET, % der Ausgangskonzentration: ca. 21%
Fibrinogen
  von Fibrinogen gebundene molare Menge von Toxin im Vergleich zu Albumin: annähernd die gleiche molare Menge
[6]
  fraction unbound at 20 h, 2170 µM: 0.33
BSA [7]; ET-Konzentration, % des Ausgangswerts
  fraction unbound at 18 h, 2170 µM: 0.05
BSA [7]; Ethanthiol an BSA gebunden
  fraction unbound: ~0.05
BSA [7]; Konzentration an ET, % der Ausgangskonzentration
  fraction unbound: ~0.11
BSA [7]; freie Thiolkonzentration, % der Ausgangskonzentration
  fraction unbound: 0.02 to 0.05

## Nc1nc2ncc(CNc3ccc(C(=O)N[C@@H](CCC(=O)O)C(=O)O)cc3)nc2c(=O)[nH]1 [Folsäure]
[8]
  K-Werte: ca. 5

## N[C@@H](CCC(=O)N[C@@H](CS)C(=O)NCC(=O)O)C(=O)O [Glutathion, red., Glutathion, reduziert]
BSA [1]
  adsorbierte Menge nach 45 Minuten: ca. 95%
Plasma; ET rises again after final addition of Cystein
  Entkopplung: keine 100%ige Entkopplung
Plasma; uncoupler added directly
  Restkonzentration an ET nach Adsorption an AK mit vorheriger Freisetzung durch Entkoppler: 15%
Plasma; uncoupler pre-adsorbed on AK
  Restkonzentration an ET nach Adsorption an AK mit vorheriger Freisetzung durch Entkoppler: 16%
[9]
  K-Werte: ca. 100

## CN(C)CCCN1c2ccccc2CCc2ccccc21 [Imipramin]
Plasmaproteine; plasma
  Bindung von Pharmaka an Plasmaproteine: 90%

## NNC(=O)c1ccncc1 [Isoniazid]
Plasmaproteine
  Bindung von Pharmaka an Plasmaproteine: 100%

## Nc1nc2c(c(=O)[nH]1)N(C=O)C(CNc1ccc(C(=O)N[C@@H](CCC(=O)O)C(=O)O)cc1)CN2 (some centres unmarked) [Leucoverin]
[8]
  K-Werte: ca. 5

## CN(Cc1cnc2nc(N)nc(N)c2n1)c1ccc(C(=O)N[C@@H](CCC(=O)O)C(=O)O)cc1 [Methotrexat]
Plasmaproteine; plasma
  Bindung von Pharmaka an Plasmaproteine: 80%
BSA [10]
  fraction unbound: 0.1 to 0.25
HSA [11]
  fraction unbound: 0.3 to 0.4

## O=C(O)c1ccccc1O [Salicylsäure]
Plasmaproteine; plasma
  Bindung von Pharmaka an Plasmaproteine: 80%
[8]
  K-Werte: ca. 5

## O=C1OC(c2ccc(O)c(S(=O)(=O)O)c2)(c2ccc(O)c(S(=O)(=O)O)c2)c2c(Br)c(Br)c(Br)c(Br)c21 [Sulfobromphthalein]
[8]
  K-Werte: ca. 5

## CCCCCCCC/C=C\CCCCCCCC(=O)O [ölsäure]
BSA [12]
  Bindung von Ethanthiol an BSA durch Zugabe von ölsäure: behindert oder gar blockiert

## Phenylbutazon
Plasmaproteine; plasma
  Bindung von Pharmaka an Plasmaproteine: 98%
[8]
  K-Werte: ca. 2

From EP0102564A2, “Method for the removal of toxins bound to protein or lipid from blood or blood fractions, and use of certain compounds as liberating agents” (FRAUNHOFER-GESELLSCHAFT ZUR FÖRDERUNG DER ANGEWANDTEN …, priority 1982, dated 1984)
